Data from patent publication US8012944B2, “Method for treating cancer using IAP antisense oligomer and chemotherapeutic agent” (Pharmascience Inc., priority 2003, dated 2011).
d = 2'-deoxy (DNA); m = 2'-O-methyl

How the values were obtained:
Assay type in all cases: cell-based, human
[1] = tested on: XIAP mRNA; test: XIAP mRNA knock-down in H460 cells (real-time RT-PCR / TaqMan); conditions: 2 × 2 MBO; NCI-H460 cells, 9 hours post-transfection; relative level (mock control 1.01)
[2] = tested on: T24 bladder carcinoma cells; test: Total cellular protein in transfected T24 cells; conditions: first screen
Method: (§1) At day 3, XIAP RNA levels were measured using quantitative real-time PCR techniques, as described above. At day 4, XIAP protein levels were measured by ELISA (FIGS. 1A, 1C, 1E, 1G, 1I, and 1K), and total cellular protein was measured biochemically (FIGS. 1B, 1D, 1F, 1H, 1J, and 1L; used to normalize the XIAP protein levels). The results were compared to a mock transfection sample (treated with the transfection agent but no oligonucleotide DNA was added, and then processed as for the other samples). Time course experiments determined that the optimal time for protein knock-down to be around 12 to 24 hours.
These nucleobase oligomers were also examined for their ability to decrease XIAP mRNA levels at 12 hours, normalized against GAPDH levels, and compared to mock transfection. Total protein concentrations at 12 hours were also determined (FIG. 2C).

[3] = tested on: XIAP protein; test: XIAP protein knock-down in T24 cells (XIAP ELISA, relative to total protein); conditions: for XIAP protein levels relative to total protein, compared to mock transfection (in words): first screen of the library
Excerpt: (§2) We used TaqMan quantitative PCR (described below) to assay for changes in mRNA levels after oligonucleotide treatment. We employed ELISA for determining XIAP protein levels and western blotting for determining HIAP1 protein levels. Transfection conditions were optimized with Lipofectamine plus or Lipofectamine 2000 (Life Technologies, Canada) on T24 bladder carcinoma cells or H460 non-small cell lung carcinoma cells, or lipofectin on SF-295 glioblastoma cells, using a fluorescein-tagged sense oligonucleotide (5′-mGmAGAAGATGACTGGTAAmCmA-3′; SEQ ID NO: 261) from XIAP spanning the start codon as a control. The results were visualized and gauged by epi-fluorescence microscopy. In the case of T24 cells, transfections were further optimized based on the ability of a published oligonucleotide to downregulate survivin expression (Li et al., Nat. Cell Biol. 1:461-466, 1999) (5′-U/TGTGCTATTCTGTGAAU/TU/T-3′ SEQ ID NO: 262). We optimized the transfection conditions based on the TaqMan results of survivin RNA knock-down detected with PCR primers and fluorescent probe, described in detail below. […] We then applied these conditions to screen for XIAP protein knock-down using the oligo library against T24 cells.
A standard colorimetric XIAP ELISA assay was performed using an affinity-purified rabbit polyclonal antibody to XIAP as a capture antibody, and was detected with a XIAP monoclonal antibody (MBL, Japan) and a biotinylated anti-mouse Ig antibody and horseradish peroxidase-conjugated streptavidin and TMB substrate. Alternatively, a polyclonal XIAP or HIAP1 antibody may be used to measure XIAP or HIAP1 protein levels, respectively.
The XIAP synthetic library of 96 antisense oligonucleotides was first screened for decreases in XIAP protein levels. Specifically, T24 cells (1.5×10^4 cells/well) were seeded in wells of a 96-well plate on day 1, and were cultured in antibiotic-free McCoy's medium for 24 hours. On day 2, the cells were transfected with XIAP antisense oligonucleotides as described above (oligonucleotides are labeled according to their plated position, i.e., A1 to H12, and include two repeats, A13 and B13 that contain lyophilized DNA pellets that stuck to the sealing membrane). Briefly, the nucleobase oligomers were diluted in 10 μl/well of serum-free, antibiotic-free McCoy's medium and then PLUS reagent was added. Lipofectamine was diluted in 10 μl/well of serum-free, antibiotic-free McCoy's medium, and both mixes were incubated for 15 minutes at room temperature. The mixes were then combined and incubated for 15 minutes at room temperature.
In the meantime, the complete medium was removed from the cells and 50 μl/well of serum-free, antibiotic-free medium was added to the cells. The transfection mixes were added to the well, and the cells were incubated for three hours. Then 30 μl/well of serum-free, antibiotic-free medium and 100 μl/well of antibiotic-free complete medium, containing 20% fetal bovine serum were added to each well.
as §1, with “hours. […]” for “hours.”

[4] = tested on: XIAP mRNA; test: XIAP mRNA knock-down in H460 cells (real-time RT-PCR / TaqMan)
How it was run: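 NCI-H460 cells transfected with phosphorothioate antisense oligonucleotides via Lipofectamine 2000; RNA isolated after 6 h treatment. XIAP mRNA quantified by one-step TaqMan real-time RT-PCR, comparative Ct (threshold 30× baseline SD), normalized to GAPDH and expressed relative to untreated control cells.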

[5] = tested on: XIAP RNA; test: XIAP RNA knock-down in T24 cells (TaqMan quantitative PCR)
Excerpt: as §2
RNA was extracted from cells lysed in RLT buffer (QIAGEN, Valencia, Calif.), and purified using QIAGEN RNeasy columns/kits. Real-time quantitative PCR was performed on a Perkin-Elmer ABI 7700 Prism PCR machine. RNA was reverse transcribed and amplified according to the TaqMan Universal PCR Master Mix protocol of PE Biosystems, using primers and probes designed to specifically recognize XIAP, HIAP1, survivin, or GAPDH. For human survivin, the forward primer was 5′-[…]-3′ (SEQ ID NO: 263), the reverse primer was 5′-GAAAGGAAAGCGCAACCG-3′ (SEQ ID NO: 264), and the probe was 5′-(FAM)[…](TAMRA)-3′ (SEQ ID NO: 265). For human HIAP1, the forward primer was 5′-[…]-3′ (SEQ ID NO: 266), the reverse primer was 5′-[…]-3′ (SEQ ID NO: 267), and the probe was 5′-(FAM)[…](TAMRA)-3′ (SEQ ID NO: 268). For human XIAP, the forward primer was 5′-[…]-3′ (SEQ ID NO: 269), the reverse primer was 5′-[…]-3′ (SEQ ID NO: 270), and the probe was 5′-(FAM)[…](TAMRA)-3′ (SEQ ID NO: 271). For human GAPDH, the forward primer was 5′-GAAGGTGAAGGTCGGAGTC-3′ (SEQ ID NO: 272), the reverse primer was 5′-GAAGATGGTGATGGGATTC-3′ (SEQ ID NO: 273), and the probe was 5′-(JOE)[…](TAMRA)-3′ (SEQ ID NO: 274). FAM is 6-carboxyfluoroscein, JOE is 6-carboxy-4,5-dichloro-2,7-dimethoxyfluoroscein, and TAMRA is 6-carboxy-N,N,N′,N′-tetramethylrhodamine. FAM and JOE are 5′ reporter dyes, while TAMRA is a 3′ quencher dye.
Relative quantification of gene expression was performed as described in the PE Biosystems manual using GAPDH as an internal standard. The comparative Ct (cycle threshold) method was used for relative quantitation of IAP mRNA levels compared to GAPDH mRNA levels. Briefly, real-time fluorescence measurements were taken at each PCR cycle and the threshold cycle (Ct) value for each sample was calculated by determining the point at which fluorescence exceeded a threshold limit of 30 times the baseline standard deviation. The average baseline value and the baseline SD are calculated starting from the third cycle baseline value and stopping at the baseline value three cycles before the signal starts to exponentially rise. The PCR primers and/or probes for the specific IAPs were designed to span at least one exon-intron boundary separated by 1 kb or more of genomic DNA, to reduce the possibility of amplifying and detecting genomic DNA contamination. The specificity of the signal, and possible contamination from DNA, were verified by treating some RNA samples with either DNase or RNase, prior to performing the reverse transcription and PCR reaction steps.
The XIAP synthetic library of 96 antisense oligonucleotides was first screened for decreases in XIAP protein levels. […]

[6] = tested on: T24 bladder carcinoma cells; test: T24 cell viability and chemosensitization (WST-1 tetrazolium dye assay); conditions: adriamycin 0.5 μg/ml for 20 hours after transfection, vs oligonucleotide alone
Method: T24 cells were transfected with XIAP antisense oligonucleotides, scrambled oligonucleotides, no oligonucleotides (mock transfected), or were left untreated. The cells were tested for viability 20 hours after transfection (with the exception of the untreated control) using the WST-1 tetrazolium dye assay in which WST-1 tetrazolium dye is reduced to a colored formazan product in metabolically active cells (FIG. 5A).
To examine the effects of the nucleobase oligomers on the chemosensitization of the T24 cells to cisplatin or adriamycin, oligonucleotides were tested for their ability to further kill T24 cells in the presence of a fixed dose of adriamycin (0.5 μg/ml). Cells were first transfected with a oligonucleotide, then adriamycin was added for another 20 hours. Viability was measured by WST-1 at the end of the 20-hour drug treatment (FIG. 5B). Results are shown in FIG. 5C as percentage viability compared to nucleobase oligomer treatment alone.

What does the source list for “AGTTAAATGAATATTGTTT (antisense; sugars from the 5' end m2 d15 m2, backbone and T or U not given here; further chemistry not fully specified) [Code B9]”?
XIAP RNA [1]: 0.74; total protein (toxic or cytostatic effect) [2]: clear drop; XIAP protein levels relative to total protein, compared to mock transfection (in words) [3]: no relative drop; XIAP down-regulation H460 RNA [4]: 38%

“GACACTCCTCAAGTGAATG (antisense; sugars from the 5' end m2 d15 m2, backbone, methylation of C and T or U not given here; further chemistry not fully specified) [Code C9]” was tested. Which “total protein (toxic or cytostatic effect)” value [2] did it give?
Its value is “clear drop”.

What about the “XIAP protein levels relative to total protein, compared to mock transfection (in words)” value [3] of the same sequence?
The value was “no relative drop”.

What does the source list for “ATCTTCTCTTGAAAATAGG (sugars from the 5' end m2 d15 m2, linkages s1 o16 s1 (s phosphorothioate, o phosphodiester), T or U not given here) [Code F3]”?
XIAP down-regulation T24 RNA [5]: 44%; XIAP down-regulation T24 protein [3]: 53%; XIAP protein levels relative to total protein, compared to mock transfection (in words) [3]: some decrease; further drop in survival with adriamycin [6]: 40%

“GATTCACTTCGAATATTAA (sugars from the 5' end m2 d15 m2, linkages s1 o16 s1 (s phosphorothioate, o phosphodiester), methylation of C not given here) [Code D7]” was tested. Which “XIAP down-regulation T24 RNA” value [5] did it give?
Its value is 56%.

What about the “XIAP down-regulation T24 protein” value [3] of the same sequence?
The value was 88%.

What about the “XIAP protein levels relative to total protein, compared to mock transfection (in words)” value [3] of the same sequence?
Its value is “some decrease”.

What about the “further drop in survival with adriamycin” value [6] of the same sequence?
The value was 40%.

And the “XIAP down-regulation H460 RNA” value [4]?
The value was 46%.
